In patent US6338963B1, “Use of carbon monoxide dependent guanylyl cyclase modifiers to stimulate neuritogenesis” (NeoTherapeutics, Inc., priority 1994, dated 2002):
Where a name gives a salt, the structure may show the parent alone. Marks after values point to notes of the source that are not given here.

Key:
rat caudate nuclei = assay: GAD activity in rat caudate nuclei damaged by NMDA; assay type: in vivo; conditions: NMDA 25-300 nmoles infused unilaterally, maximal lesion, 8 to 10 days
Method: The effect of AIT-082 on in vivo neuroprotection was also assessed by assaying for glutamic acid decarboxylase (GAD) activity.
GAD activity in rat caudate nuclei was damaged in vivo by NMDA. Increasing amounts of NMDA (25-300 nmoles) were unilaterally infused into caudate nuclei of rats. Eight to 10 days after the injections, glutarnic acid decarboxylase (GAD) activity was assayed, as an index of the loss of GABA-ergic neurons. NMDA produced a dose-dependent lesion, which at its maximal extension caused a reduction of GAD activity by 50% in comparison with that of contralateral sham-operated nuclei (control). […] The necrotic areas are in white, whereas the shadow is the surrounding edema GAD activity was evaluated by measuring the ex novo formation of [^3H]GABA from dissected striata exposed to 1 μCi of [^3H]glutamate for 1 hour at 37° C. GABA was assayed by HPLC with fluorescence detection and the [3H]label associated with GABA was measured.

[1] = test system: cultured rat hippocampal neurons; assay: NMDA-induced toxicity in cultured rat hippocampal neurons, astrocyte conditioned medium; conditions: NMDA 100 μM pulse of 10 min.
Method: To determine whether or not AIT-082 afforded in vitro neuroprotection, the effect of AIT-082 on toxicity induced by N-methyl-D-aspartate (NMDA) in cultured rat hippocampal neurons was studied.
To determine whether AIT-082 protected against neuronal toxicity induced by NMDA, and whether astrocytes might be involved, cultured astrocytes were exposed to AIT-082 for 6 hr. The drug was then removed and cultures were kept in fresh medium for the following 20 hr. This conditioned medium was then added to primary cultures of rat hippocampal neurons on the seventh day in vitro, immediately after they had been exposed to a toxic pulse of NMDA.
It was next evaluated whether the addition of conditioned medium (CM) deriving from astrocyte cultures treated with 100 μM AIT-082 generated protection against damage induced by a toxic pulse with 100 μM NMDA in cultured neurons.
The effects of NMDA are shown in FIG. 66A on cortical cells and in FIG. 66B for hippocampal cells.

[2] = test system: cultured neurons from rat cerebral cortex; assay: NMDA-induced toxicity in cultured rat cortical neurons, astrocyte conditioned medium; assay type: cell-based; conditions: NMDA pulse 100 μM for 10 min, Trypan blue or LDH
Method: In these experiments, cultured neurons were prepared from rat cerebral cortex. In these cultures the NMDA pulse (100 μM for 10 min) provoked about 80% neuronal death (measured by Trypan blue cell staining or LDH activity). Separately, cultured astrocytes were treated for 6 hours with AIT-082. Then, the medium containing the drug was replaced with fresh medium without the drug and the astrocyte cultures were maintained in this medium for the next 24 hours. This medium represented the CM and was added to neurons soon after the toxic pulse with NMDA. The addition of CM partly counteracted the toxic effects caused by NMDA, reducing the neuronal damage by about 50%. If the medium was boiled for 20 min at 100° C. prior to addition to NMDA-damaged neurons, it completely lost the protective activity. […] To verify whether the neuroprotection caused by AIT-082 was ascribable to the production of TGFβ2 or NGF, antibodies to TGFβ2 or to NGF (100 ng/ml) were added together with CM.
Conversely, when DPCPX (100 nm) was added to astrocyte cultures together with AIT-082, the neuroprotective effect of the resulting CM deriving from the culture of the astrocytes with AIT-082 was reduced by only 20%, as compared to the neuroprotective effect of CM derived from astrocytes exposed to AIT-082 alone (assumed as equal to 100%).

Swiss Webster mice [3] = assay: Locomotor activity (spontaneous movements), Swiss Webster mice; assay type: in vivo; conditions: THA 1.25 mg/kg
Method: The activity of AIT-082 was compared with tacrine (THA) and physostigmine (PHY), experimental anticholinesterase agents which enhance memory in animals. The drugs were also evaluated for their effects on locomotor activity. In the win-shift memory paradigm, AIT-082 was evaluated for its ability to induce tolerance after 18 days of drug administration. In addition AIT-082 was tested for its activity to modify learning in a modified T-maze discrimination task.
(§1) The drugs used in this example are 4-((3-(1,6-dihydro-6-oxo-9-purin-9-yl)-1-oxopropyl)amino) benzoic acid (AIT-082), as an exemplary potassium salt, tacrine hydrochloride (tetrahydroaminoacridine, THA, Sigma Chemical Co., St. Louis, Mo.), and physostigmine, hemisulfate salt (PHY, Sigma Chemical Co., St. Louis, Mo.). The drugs were dissolved in saline and prepared fresh daily. All injections were made at a volume of 0.1 ml/10 grams body weight. When testing drug effects, intraperitoneal (i.p.) injections of AIT-082 or THA were made one hour prior to the start of testing. Due to its shorter duration of action, PHY was injected 30 minutes prior to testing. Control subjects receive a similar injection of saline (vehicle).

Swiss Webster mice [4] = assay: Win-shift T-maze memory test, Swiss Webster mice; assay type: in vivo; conditions: 90-second inter-trial interval, THA 1.25 mg/kg i.p.
Method: Male Swiss Webster mice six months (young adult) and eleven months (old) of age, obtained from the National Institute on Aging, were maintained in individual cages, on a […] light/dark cycle with continuous access to water. Food was limited so that the mice stabilized at 80% of free feeding weight. Mice were weighed and handled daily for one week. The win-shift model was run as described in the literature and consists of a T-maze in which the correct response alternates after each correct trial. The interval between trials is varied and allows for the determination of the longest period between trials that a subject can remember the correct response on the previous trial. This allows the measure of the duration of the memory trace. […] The reward goal box is alternated after each correct trial. Ten trials per mouse are run each day. […] The latency time to leave the start box is recorded as a measure of motivation, the running time (the time from leaving the start box to reaching the goal box) is recorded as a measure of performance, and the number of correct responses as a measure of memory.
as §1
To determine the duration of the memory trace, subjects were administered drug or saline and 30 minutes (PHY) or 1 hour (AIT-082 or THA) later they were given a single reference run with the milk reward in both goal boxes. After the indicated inter-trial delay, subjects were returned to the start box and given the first test trial with the milk reward only in the goal box opposite to the one entered on the previous correct trial. The subjects were given 10 trials with the reward alternating only after correct responses.
To determine if tolerance to the biological effects of AIT-082 developed, drug or saline was administered daily for 18 days prior to the testing in the standard win-shift paradigm.

CN[C@H](CC(=O)O)C(=O)O [NMDA, N-methyl-D-aspartate]
reduction of GAD activity versus contralateral sham-operated nuclei (rat caudate nuclei): 50% | death of the cultured neurons [1]: ~75% | Count of Dead Cells (Trypan Blue Staining) ([1]; within 24 hours): 401.4 ± 27.3 | LDH ([1]; within 24 hours): 262.8 ± 13.4 mOD/min | neuronal death [2]: about 80%

Nc1c2c(nc3ccccc13)CCCC2 [THA, tacrine hydrochloride, reference compound]
Locomotor Activity (Swiss Webster mice [3]): 671* Spontaneous movements per hour | Win-shift Memory Test, Correct responses (Swiss Webster mice [4]): 7.1* Correct responses/10 trials
